Experimental data reported in the kinase profiling compilation of Christmann-Franck et al. (2016).

Legend:
Test in all cases: KINOMEscan competition binding
Settings in all cases: compound 10.0 µM
CDK11B (human) = CDK11B (human) (UniProt P21127)
ULK2 (human) = ULK2 (human) (UniProt Q8IYT8)
MAPK13 (human) = MAPK13 (human) (UniProt O15264)
MKNK1 (human) = MKNK1 (human) (UniProt Q9BUB5)
LYN (human) = LYN (human) (UniProt P07948)
CDKL3 (human) = CDKL3 (human) (UniProt Q8IVW4)
RPS6KA2 KD1 (human) = RPS6KA2 KD1 (human) (UniProt Q15349)
CSNK1A1 (human) = CSNK1A1 (human) (UniProt P48729)
Chain of CSNK1A1 (human) (P48729 whole entry, looked up): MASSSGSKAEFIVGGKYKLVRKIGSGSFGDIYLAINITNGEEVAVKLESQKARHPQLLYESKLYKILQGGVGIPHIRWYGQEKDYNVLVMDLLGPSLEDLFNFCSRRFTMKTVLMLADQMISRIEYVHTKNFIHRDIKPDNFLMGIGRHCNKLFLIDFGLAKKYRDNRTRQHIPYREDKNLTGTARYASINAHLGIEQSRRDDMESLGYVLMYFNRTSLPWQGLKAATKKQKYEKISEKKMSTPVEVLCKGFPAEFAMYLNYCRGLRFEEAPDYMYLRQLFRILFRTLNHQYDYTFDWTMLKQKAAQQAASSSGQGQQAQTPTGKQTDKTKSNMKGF

KDR (human) = KDR (human) (UniProt P35968)
EIF2AK1 (human) = EIF2AK1 (human) (UniProt Q9BQI3)
CIT (human) = CIT (human) (UniProt O14578)
GSK3A (human) = GSK3A (human) (UniProt P49840)
STK38L (human) = STK38L (human) (UniProt Q9Y2H1)
Chain of STK38L (human) (Q9Y2H1 whole entry, looked up): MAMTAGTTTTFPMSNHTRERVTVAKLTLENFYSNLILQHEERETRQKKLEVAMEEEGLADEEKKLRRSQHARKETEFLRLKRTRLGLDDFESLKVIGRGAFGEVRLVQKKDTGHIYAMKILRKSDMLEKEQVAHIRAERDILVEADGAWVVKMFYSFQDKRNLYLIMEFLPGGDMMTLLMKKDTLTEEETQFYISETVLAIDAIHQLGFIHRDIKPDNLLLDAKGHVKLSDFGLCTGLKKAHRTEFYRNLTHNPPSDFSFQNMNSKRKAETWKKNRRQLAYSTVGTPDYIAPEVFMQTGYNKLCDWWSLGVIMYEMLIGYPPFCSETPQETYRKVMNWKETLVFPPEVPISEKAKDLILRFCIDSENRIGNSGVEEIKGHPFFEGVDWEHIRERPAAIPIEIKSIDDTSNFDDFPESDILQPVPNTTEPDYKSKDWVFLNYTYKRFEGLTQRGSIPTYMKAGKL

MINK1 (human) = MINK1 (human) (UniProt Q8N4C8)
ROCK2 (human) = ROCK2 (human) (UniProt O75116)
IKBKB (human) = IKBKB (human) (UniProt O14920)
PRPF4B (human) = PRPF4B (human) (UniProt Q13523)
PIK3C2B (human) = PIK3C2B (human) (UniProt O00750)
MST1R (human) = MST1R (human) (UniProt Q04912)
Chain of MST1R (human) (Q04912 whole entry, looked up): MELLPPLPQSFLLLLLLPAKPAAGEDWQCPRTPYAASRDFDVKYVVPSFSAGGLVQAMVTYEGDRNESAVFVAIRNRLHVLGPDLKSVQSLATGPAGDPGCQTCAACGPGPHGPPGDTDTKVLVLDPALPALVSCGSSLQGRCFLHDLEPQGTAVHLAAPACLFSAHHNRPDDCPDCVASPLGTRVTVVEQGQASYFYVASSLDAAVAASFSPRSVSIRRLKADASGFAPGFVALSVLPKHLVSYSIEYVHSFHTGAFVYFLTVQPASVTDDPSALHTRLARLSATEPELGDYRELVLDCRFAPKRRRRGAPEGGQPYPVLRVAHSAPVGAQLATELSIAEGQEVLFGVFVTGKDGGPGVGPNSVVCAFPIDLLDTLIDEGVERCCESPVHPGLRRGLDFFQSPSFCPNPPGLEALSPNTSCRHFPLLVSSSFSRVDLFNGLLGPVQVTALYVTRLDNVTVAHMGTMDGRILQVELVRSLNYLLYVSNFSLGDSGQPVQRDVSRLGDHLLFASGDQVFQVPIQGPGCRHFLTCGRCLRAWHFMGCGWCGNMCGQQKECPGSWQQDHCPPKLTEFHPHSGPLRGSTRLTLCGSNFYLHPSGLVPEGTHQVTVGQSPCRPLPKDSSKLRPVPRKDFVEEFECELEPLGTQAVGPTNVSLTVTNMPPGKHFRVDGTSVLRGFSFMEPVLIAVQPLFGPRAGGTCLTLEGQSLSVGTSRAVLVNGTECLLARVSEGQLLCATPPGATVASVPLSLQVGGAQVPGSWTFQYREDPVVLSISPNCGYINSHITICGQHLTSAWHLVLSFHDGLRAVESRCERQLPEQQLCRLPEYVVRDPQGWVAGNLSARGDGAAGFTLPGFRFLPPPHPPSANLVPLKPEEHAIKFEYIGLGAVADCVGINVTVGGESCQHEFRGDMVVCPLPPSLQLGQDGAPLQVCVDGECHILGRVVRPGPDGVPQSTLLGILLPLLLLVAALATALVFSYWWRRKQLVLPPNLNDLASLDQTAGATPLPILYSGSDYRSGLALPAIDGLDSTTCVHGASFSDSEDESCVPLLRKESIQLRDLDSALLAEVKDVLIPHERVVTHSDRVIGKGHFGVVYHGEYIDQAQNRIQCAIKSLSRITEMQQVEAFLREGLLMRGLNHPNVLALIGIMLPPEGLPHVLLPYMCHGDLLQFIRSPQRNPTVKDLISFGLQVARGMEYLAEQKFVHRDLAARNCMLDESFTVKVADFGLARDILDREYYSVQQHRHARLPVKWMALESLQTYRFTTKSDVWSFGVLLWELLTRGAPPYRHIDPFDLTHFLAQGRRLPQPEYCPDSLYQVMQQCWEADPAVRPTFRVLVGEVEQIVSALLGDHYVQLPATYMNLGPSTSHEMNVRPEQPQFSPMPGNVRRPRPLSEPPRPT

SRPK1 (human) = SRPK1 (human) (UniProt Q96SB4)
CDK14 (human) = CDK14 (human) (UniProt O94921)
DCLK2 (human) = DCLK2 (human) (UniProt Q8N568)
PDPK1 (human) = PDPK1 (human) (UniProt O15530)
CDKL2 (human) = CDKL2 (human) (UniProt Q92772)
STK11 (human) = STK11 (human) (UniProt Q15831)
STK38 (human) = STK38 (human) (UniProt Q15208)
CDK18 (human) = CDK18 (human) (UniProt Q07002)
TLK2 (human) = TLK2 (human) (UniProt Q86UE8)
PAK3 (human) = PAK3 (human) (UniProt O75914)
EGFR (human) = EGFR (human) (UniProt P00533)
PIK3CA (human) = PIK3CA (human) (UniProt P42336)
CDK8 (human) = CDK8 (human) (UniProt P49336)
Chain of CDK8 (human) (P49336 whole entry, looked up): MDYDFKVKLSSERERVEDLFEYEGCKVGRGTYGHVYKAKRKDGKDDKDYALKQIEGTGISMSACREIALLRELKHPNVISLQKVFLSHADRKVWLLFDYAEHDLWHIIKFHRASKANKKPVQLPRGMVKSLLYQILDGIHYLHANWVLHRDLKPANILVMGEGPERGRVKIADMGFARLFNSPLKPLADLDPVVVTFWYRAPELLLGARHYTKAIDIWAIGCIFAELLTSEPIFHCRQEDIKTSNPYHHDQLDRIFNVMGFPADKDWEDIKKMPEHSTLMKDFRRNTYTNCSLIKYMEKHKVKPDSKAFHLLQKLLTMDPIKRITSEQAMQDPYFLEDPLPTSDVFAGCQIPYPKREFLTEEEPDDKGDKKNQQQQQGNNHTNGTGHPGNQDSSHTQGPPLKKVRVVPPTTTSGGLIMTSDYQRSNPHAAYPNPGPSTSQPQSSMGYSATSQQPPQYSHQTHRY

CSNK1D (human) = CSNK1D (human) (UniProt P48730)
CDK16 (human) = CDK16 (human) (UniProt Q00536)
PRKG2 (human) = PRKG2 (human) (UniProt Q13237)
CDC42BPB (human) = CDC42BPB (human) (UniProt Q9Y5S2)
CSNK1G1 (human) = CSNK1G1 (human) (UniProt Q9HCP0)
LATS2 (human) = LATS2 (human) (UniProt Q9NRM7)
PAK2 (human) = PAK2 (human) (UniProt Q13177)
STK25 (human) = STK25 (human) (UniProt O00506)

Chain of MAPK13 (human) (O15264 whole entry, looked up): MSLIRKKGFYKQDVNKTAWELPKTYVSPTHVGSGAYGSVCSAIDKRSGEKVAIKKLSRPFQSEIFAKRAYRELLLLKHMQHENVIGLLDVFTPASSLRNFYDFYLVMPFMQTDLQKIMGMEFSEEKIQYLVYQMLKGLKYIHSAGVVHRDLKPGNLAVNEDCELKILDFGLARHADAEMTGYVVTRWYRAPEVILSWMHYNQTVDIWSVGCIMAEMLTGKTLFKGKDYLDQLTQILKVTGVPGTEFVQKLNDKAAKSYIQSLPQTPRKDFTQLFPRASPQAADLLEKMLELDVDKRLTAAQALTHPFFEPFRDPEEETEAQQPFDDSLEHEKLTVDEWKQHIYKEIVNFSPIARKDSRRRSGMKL
Chain of CDKL3 (human) (Q8IVW4 whole entry, looked up): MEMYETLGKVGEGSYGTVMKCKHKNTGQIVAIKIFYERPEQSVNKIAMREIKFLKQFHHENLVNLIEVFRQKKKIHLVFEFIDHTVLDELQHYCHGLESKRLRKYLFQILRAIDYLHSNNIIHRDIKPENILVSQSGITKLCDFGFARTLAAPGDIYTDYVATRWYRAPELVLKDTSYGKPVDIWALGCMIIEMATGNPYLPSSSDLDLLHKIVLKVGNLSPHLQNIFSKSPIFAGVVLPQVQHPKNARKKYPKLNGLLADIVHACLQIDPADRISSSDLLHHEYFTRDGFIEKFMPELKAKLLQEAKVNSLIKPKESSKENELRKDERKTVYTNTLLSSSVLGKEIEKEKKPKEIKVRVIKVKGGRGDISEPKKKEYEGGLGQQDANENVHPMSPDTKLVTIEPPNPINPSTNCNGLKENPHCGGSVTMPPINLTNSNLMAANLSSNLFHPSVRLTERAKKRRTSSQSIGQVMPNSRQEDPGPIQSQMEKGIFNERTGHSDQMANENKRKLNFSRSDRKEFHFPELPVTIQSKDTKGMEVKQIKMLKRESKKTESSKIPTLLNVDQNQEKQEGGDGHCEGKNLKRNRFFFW
Chain of ULK2 (human) (Q8IYT8 whole entry, looked up): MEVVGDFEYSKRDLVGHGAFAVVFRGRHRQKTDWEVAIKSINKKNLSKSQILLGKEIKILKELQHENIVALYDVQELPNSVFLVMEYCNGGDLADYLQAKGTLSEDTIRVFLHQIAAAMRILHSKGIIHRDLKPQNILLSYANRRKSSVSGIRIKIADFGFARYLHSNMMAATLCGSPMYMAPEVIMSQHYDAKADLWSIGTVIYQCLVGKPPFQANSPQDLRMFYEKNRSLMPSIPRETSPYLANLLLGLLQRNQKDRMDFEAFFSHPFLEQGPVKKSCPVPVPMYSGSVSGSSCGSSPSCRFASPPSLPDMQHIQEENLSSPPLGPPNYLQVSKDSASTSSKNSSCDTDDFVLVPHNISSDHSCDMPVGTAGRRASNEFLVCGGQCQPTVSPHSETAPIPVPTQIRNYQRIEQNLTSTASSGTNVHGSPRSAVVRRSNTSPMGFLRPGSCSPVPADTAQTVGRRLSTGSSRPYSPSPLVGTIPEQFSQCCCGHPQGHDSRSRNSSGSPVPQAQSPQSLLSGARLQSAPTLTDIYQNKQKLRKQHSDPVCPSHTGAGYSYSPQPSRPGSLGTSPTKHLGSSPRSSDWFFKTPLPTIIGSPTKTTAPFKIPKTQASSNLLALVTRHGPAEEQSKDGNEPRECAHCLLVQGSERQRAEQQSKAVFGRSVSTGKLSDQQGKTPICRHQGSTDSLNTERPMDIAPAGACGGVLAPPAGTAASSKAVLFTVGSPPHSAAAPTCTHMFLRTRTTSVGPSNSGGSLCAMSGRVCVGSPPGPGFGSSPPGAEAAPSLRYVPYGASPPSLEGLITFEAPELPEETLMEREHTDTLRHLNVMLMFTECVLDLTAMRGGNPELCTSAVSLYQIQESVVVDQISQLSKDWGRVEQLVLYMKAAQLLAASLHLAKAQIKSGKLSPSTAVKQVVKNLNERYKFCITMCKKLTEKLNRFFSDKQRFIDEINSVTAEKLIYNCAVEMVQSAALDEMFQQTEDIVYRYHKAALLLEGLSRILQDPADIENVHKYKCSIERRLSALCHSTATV

Row | Structure (SMILES) | kinase still bound, per cent of control (CDK11B (human)) | kinase still bound, per cent of control (ULK2 (human)) | kinase still bound, per cent of control (MAPK13 (human)) | kinase still bound, per cent of control (MKNK1 (human)) | kinase still bound, per cent of control (LYN (human)) | kinase still bound, per cent of control (CDKL3 (human)) | kinase still bound, per cent of control (RPS6KA2 KD1 (human)) | kinase still bound, per cent of control (CSNK1A1 (human)) | kinase still bound, per cent of control (KDR (human)) | kinase still bound, per cent of control (EIF2AK1 (human)) | kinase still bound, per cent of control (CIT (human)) | kinase still bound, per cent of control (GSK3A (human)) | kinase still bound, per cent of control (STK38L (human)) | kinase still bound, per cent of control (MINK1 (human)) | kinase still bound, per cent of control (ROCK2 (human)) | kinase still bound, per cent of control (IKBKB (human)) | kinase still bound, per cent of control (PRPF4B (human)) | kinase still bound, per cent of control (PIK3C2B (human)) | kinase still bound, per cent of control (MST1R (human)) | kinase still bound, per cent of control (SRPK1 (human)) | other results
1 | COc1ccc(N(C(=O)Oc2c(C)cccc2C)c2ccnc(Nc3ccc(N4CCN(C)CC4)cc3)n2)c(OC)c1 | 58% | 38% | 100% | 98% | 0% | 0.1% | 27% | 71% | 15% | 100% | 3.8% | 100% | 100% | 14% | 88% | 93% | 55% | 11% | 16% | 23% | kinase still bound, per cent of control (CDK14 (human)): 93%; kinase still bound, per cent of control (DCLK2 (human)): 44%; kinase still bound, per cent of control (PDPK1 (human)): 82%; kinase still bound, per cent of control (CDKL2 (human)): 0.5%; kinase still bound, per cent of control (STK11 (human)): 60%; kinase still bound, per cent of control (STK38 (human)): 100%; kinase still bound, per cent of control (CDK18 (human)): 100%; kinase still bound, per cent of control (TLK2 (human)): 76%; kinase still bound, per cent of control (PAK3 (human)): 4%; kinase still bound, per cent of control (EGFR (human)): 0.4%; kinase still bound, per cent of control (PIK3CA (human)): 100%; kinase still bound, per cent of control (CDK8 (human)): 100%; kinase still bound, per cent of control (CSNK1D (human)): 82%; kinase still bound, per cent of control (CDK16 (human)): 98%; kinase still bound, per cent of control (PRKG2 (human)): 92%; kinase still bound, per cent of control (CDC42BPB (human)): 2.9%; kinase still bound, per cent of control (CSNK1G1 (human)): 95%; kinase still bound, per cent of control (LATS2 (human)): 70%; kinase still bound, per cent of control (PAK2 (human)): 58%; kinase still bound, per cent of control (STK25 (human)): 61%
2 | O=C(Nc1cccc(Nc2ncc(Br)c(NCCc3cnc[nH]3)n2)c1)N1CCCC1 | 66% | 0.3% | 11% | 100% | 24% | 75% | 7.6% | 28% | 1.8% | 100% | 0.75% | 60% | 69% | 4.2% | 0.55% | 8.4% | 5.3% | 89% | 70% | 4.2% | kinase still bound, per cent of control (CDK14 (human)): 44%; kinase still bound, per cent of control (DCLK2 (human)): 70%; kinase still bound, per cent of control (PDPK1 (human)): 2.4%; kinase still bound, per cent of control (CDKL2 (human)): 4.7%; kinase still bound, per cent of control (STK11 (human)): 3.2%; kinase still bound, per cent of control (STK38 (human)): 35%; kinase still bound, per cent of control (CDK18 (human)): 100%; kinase still bound, per cent of control (TLK2 (human)): 56%; kinase still bound, per cent of control (PAK3 (human)): 2.6%; kinase still bound, per cent of control (EGFR (human)): 47%; kinase still bound, per cent of control (PIK3CA (human)): 100%; kinase still bound, per cent of control (CDK8 (human)): 97%; kinase still bound, per cent of control (CSNK1D (human)): 73%; kinase still bound, per cent of control (CDK16 (human)): 40%; kinase still bound, per cent of control (PRKG2 (human)): 4.8%; kinase still bound, per cent of control (CDC42BPB (human)): 82%; kinase still bound, per cent of control (CSNK1G1 (human)): 54%; kinase still bound, per cent of control (LATS2 (human)): 0%; kinase still bound, per cent of control (PAK2 (human)): 45%; kinase still bound, per cent of control (STK25 (human)): 30%
